The record followed here is publication PMC9785397, “Exploiting Conserved Quorum Sensing Signals in Streptococcus mutans and Streptococcus pneumoniae” (Microorganisms, 2022).

SMILES strings stand for the structures. Converted amounts (≈) assume the structure as drawn.

One test deals with P. gingivalis. Nature of the test: microbe, parasite or virus in culture. Format: cell-based, Porphyromonas gingivalis. Conditions: peptides 0–50 μM, 16 h, 37 °C, anaerobic, A620 nm, three separate experiments. The text has this:
(§1) Streptococcus mutans Clarke (strain designation NCTC 10449), Pseudomonas aeruginosa (Schroeter) Migula (strain designation PAO1), Fusobacterium nucleatum, subspecies nucleatum (strain VPI 4355), and Porphyromonas gingivalis (strain 2561) were purchased from ATCC (LGC Standards Srl, Milan, Italy). Streptococcus mitis, Streptococcus oralis, and Streptococcus sanguinis were obtained from clinical isolates and characterized by morphological, biochemical, and molecular typing. S. mutans, S. mitis, S. oralis, and S. sanguinis were maintained in Brain Heart Infusion (BHI) broth or agar under microaerophilic conditions. P. aeruginosa was maintained in trypticase soy (TS) agar or broth. F. nucleatum was maintained in TS agar or broth with defibrinated sheep blood under anaerobic conditions. P. gingivalis was maintained in ATCC Medium 2722 supplemented with TS broth or agar under anaerobic conditions. Before the experiments, bacterial cultures were inoculated in fresh media (dilution 1:100) and grown for 16 h at 37 °C.
(§2) The antimicrobial activities of the tested peptides were assessed through the determination of the minimum inhibitory concentration (MIC) standardized by the Clinical and Laboratory Standards Institute. Bacterial inocula were diluted in 10 mL of MHB […]. The concentration of the bacteria was adjusted to 0.5 McFarland standard, and the bacteria were dispensed in 96-well microtiter plates (final bacterial concentration: 1 × 10^4 CFU/well). Peptides were dissolved in sterile water (stock concentration: 2 mM) and added at final concentrations ranging from 0 to 50 µM. Plates were incubated at 37 °C for 16 h. At the end of incubation, bacterial growth was recorded using a microplate reader (Varioskan Lux Reader; Thermo Fisher Scientific, Milan, Italy) by quantifying the adsorption at 620 nm. Cultures were then opportunely diluted and seeded on agar plates. Bacterial cultures inoculated with the highest final concentration of the vehicle (sterile water) or chlorhexidine hydrochloride salt (CHX, concentration range: 0.05 to 500 μg/mL; Merck, Milan, Italy) were included as controls in each test. Experiments were performed in triplicate.

A further test relates to S. mitis. Nature of the test: microbe, parasite or virus in culture. Type of test: cell-based, Streptococcus mitis. The conditions noted are these: peptides 0–50 μM, 16 h, 37 °C, microaerophilic, A620 nm, three separate experiments.
Excerpt: as §1, §2

Test [1] has as its system S. mutans bacteriocin production against P. aeruginosa. Nature of the test: Bacteriocin overlay assay, S. mutans spotted on P. aeruginosa. Format: cell-based, Streptococcus mutans. The conditions noted are these: CSP1 20 μM, microaerophilic, experimental control. The procedure: During the formation of complex biofilm such as dental plaque, the ability of S. mutans to compete with other commensal species determines the success of the cariogenesis process. S. mutans uses antibacterial peptides, namely, bacteriocins, to overcome and subvert the composition of dental microbiota. We investigated the production of bacteriocins using the overlay assay. Overnight cultures of S. mitis, S. oralis, S. sanguinis, P. aeruginosa, F. nucleatum, or P. gingivalis were diluted 1:100 in BHI or TS broth and incubated at 37 °C until they reached an OD620 of 0.3. Cultures were added with agar (BD Difco^TM Agar) at the final concentration of 1.5% w/v and transferred in plates. Overnight cultures of S. mutans were diluted 1:100 in BHI and added with peptides (20 μM) or the vehicle with or without CSP1. Culture media were supplemented with agar to reach the final concentration of 0.7% w/v. The solutions were spotted on the surface of agar plates prepared as described above. […]
Spots (10 for each experimental group) were acquired and analyzed using NIH Image J software (version 1.53t August 2022, https://imagej.nih.gov/ij/index.html; accessed on 7 September 2022). The appearance of a clear area on the plate (bacterial growth inhibition) was evaluated as indicative of bacteriocin activity. The diameters of the area were measured in a blinded fashion.

Another test deals with comD gene. Nature of the test: qRT-PCR, comD gene expression. Type of test: cell-based, Streptococcus mutans. Conditions: CSP1 20 μM, planktonic, 8 h, qPCR. On the procedure: S. mutans was cultured in BHI supplemented with peptides or the vehicle. Cultures were centrifuged, and total RNA was isolated and purified from the bacterial pellets using the GRS Total RNA Kit—Bacteria (GK16.0100; GRISP Research Solution, Porto, Portugal), following the manufacturer’s instructions. Purified RNA was subjected to DNase I treatment to remove contaminating DNA. The RNA yield and purity were assessed by measuring the absorbance, and only samples with a ratio of 260/280 nm in the 1.8–2 range were used. cDNA was generated using the cDNA RT kit with an RNAse inhibitor (Applied Biosystems; Monza, Milan). Quantitative PCR (qRT-PCR) was performed using SYBR green mixture (iScript One Step RT-PCR kit; Bio-Rad, Segrate, Milan) to determine the transcript levels of genes using the oligonucleotides listed in Table 3. The gyrA gene served as the housekeeping gene.
In general terms: Real-time PCR tracks product formation cycle by cycle.

Test [2] has as its system S. mutans biofilm formation. Description: Biofilm formation (crystal violet). Conditions: peptide 20 μM, 72 h, p < 0.05. Format: cell-based, Streptococcus mutans. On the procedure: Overnight cultures of S. mutans were diluted 1:1000 in a 1:10 solution of BHI broth supplemented with 0.2% w/v sucrose and artificial saliva (AS; 1.3 g/L KCl, 0.1 g/L NaCl, 0.05 g/L MgCl, 0.1 g/L CaCl2, 0.5 g/L peptone, 25 μg/L NaF, 27 mg/L KH2PO4, 35 mg/L K2HPO4, pH 6.8; all reagents purchased from Merck). Cultures were seeded into 96-well polystyrene microtiter plates (200 µL/well) and incubated at 37 °C under static conditions. To identify the time of incubation that is useful in obtaining a mature biofilm, plates were incubated for 16, 24, 48, 72, or 96 h. Half of the media was renewed every 24 h. At the end of incubations, the wells were emptied and washed three times with sterile PBS to remove planktonic cells. Adhering cells were incubated with resazurin 0.01% in the dark at 37 °C for 20 min [30]. In metabolically active cells, the non-fluorescent resazurin was reduced to highly fluorescent resorufin by dehydrogenase enzymes. The relative fluorescence units (RFU) of resorufin were measured using a fluorimeter (Ex = 530–570 nm, Em = 590–620 nm; Varioskan Lux Reader; Thermo Fisher Scientific).
To assess the effect of the compounds on biofilm formation or mature biofilm, cultures of S. mutans were prepared as described above. […] The optical density was measured at 570 nm using a microplate reader (Varioskan Lux Reader; Thermo Fisher Scientific). […]

Regarding `CC[C@H](C)[C@H](NC(=O)[C@H](Cc1ccccc1)NC(=O)[C@H](CC(=O)O)NC(=O)[C@H](CCCNC(=N)N)NC(=O)[C@H](Cc1ccccc1)NC(=O)[C@H](Cc1ccccc1)NC(=O)[C@H](CCCCN)NC(=O)[C@H](CO)NC(=O)[C@H](CC(C)C)NC(=O)[C@H](CCCNC(=N)N)NC(=O)[C@H](CCSC)NC(=O)[C@@H](N)CCC(=O)O)C(=O)N[C@@H](CC(C)C)C(=O)N[C@@H](CCC(N)=O)C(=O)N[C@@H](CCCNC(=N)N)C(=O)N[C@@H](CCCCN)C(=O)N[C@@H](CCCCN)C(=O)O` [CSP1], in the test on P. gingivalis, the “Minimum inhibitory concentration (MIC), P. gingivalis” value was above 50 µM. In addition, in the test on S. mitis, the “Minimum inhibitory concentration (MIC), S. mitis” value turned out to be 25 µM (≈ 56.1 µg/mL). In test [1], the “Replication of P. aeruginosa in presence of S. mutans stimulated with peptide” value was “not affected”. For the same compound, in the test on comD gene, the “Expression of comD in S. mutans” value is reported as “increased the expression”. Besides, the “Effect on biofilm production vs. vehicle” value in test [2] is “significantly increased”.
